The values that follow are results of earlier work, collected in US7304085B2, “Nitrogen-containing heteroaryl derivatives” (Genelabs Technologies, Inc., priority 2003, dated 2007).

One data set concerns HCV. The following applies: treatment of HCV, long term efficacy.

Turning to `NC(=O)c1ncn([C@@H]2O[C@H](CO)[C@@H](O)[C@H]2O)n1` [Ribavirin, 1-β-D-ribofuranosyl-1H-1,2,4-triazole-3-carboxamide], the “patients with significant hemolysis” value (currently recommended doses) is 10-20%. Moreover, the teratogenicity / embryotoxicity result (in vivo) is “teratogenic and embryotoxic”.

In the case of interferon, the response rate result in the data set on HCV was “about 25%”.
